Laboratory results as given in ChEMBL document CHEMBL3525960, “Role of catechol-O-methyltransferase in the disposition of luteolin in rats” (Drug Metab Dispos, 2011).

How the values were obtained:
[1] = Drug excretion in Sprague-Dawley rat urine treated with luteolin at 6.5 mg/kg, iv after 24 hrs; type: ADME, organism-based; set-up: dose 6.5 mg/kg, route intravenous; conditions: read-out: Drug excretion
[2] = tested on: Kidney; assay: Drug metabolism in Sprague-Dawley rat kidney homogenate treated with luteolin at 20 uM after 20 to 60 mins; type: ADME, tissue-based; conditions: tissue homogenate
[3] = AUC (0 to infinity) in Sprague-Dawley rat treated with luteolin at 6.5 mg/kg, iv; type: ADME, organism-based; set-up: time infinity, dose 6.5 mg/kg, route intravenous; conditions: plasma
[4] = Drug excretion in Sprague-Dawley rat urine treated with luteolin at 6.5 mg/kg, iv after 24 hrs co-treated with COMT inhibitor entacapone; type: ADME, organism-based; set-up: dose 6.5 mg/kg, route intravenous; conditions: read-out: Drug excretion
[5] = tested on: Small intestine; assay: Drug metabolism in Sprague-Dawley rat small intestine homogenate treated with luteolin at 20 uM after 20 to 60 mins in presence of COMT inhibitor entacapone; type: ADME, tissue-based; conditions: tissue homogenate
[6] = tested on: Lung; assay: Drug metabolism in Sprague-Dawley rat lung homogenate treated with luteolin at 20 uM after 20 to 60 mins in presence of COMT inhibitor entacapone; type: ADME, tissue-based; conditions: tissue homogenate
[7] = tested on: Liver microsome; assay: Stability in Sprague-Dawley rat liver microsomes at 10 uM after 10 to 30 mins by HPLC analysis; type: ADME
[8] = Half life in Sprague-Dawley rat treated with luteolin at 6.5 mg/kg, iv; type: ADME, organism-based; set-up: dose 6.5 mg/kg, route intravenous; conditions: in vivo
[9] = Mean residence time (0 to infinity) in Sprague-Dawley rat treated with luteolin at 6.5 mg/kg, iv; type: ADME, organism-based; set-up: dose 6.5 mg/kg, route intravenous; conditions: in vivo
[10] = tested on: Liver; assay: Drug metabolism in Sprague-Dawley rat liver homogenate treated with luteolin at 20 uM after 20 to 60 mins; type: ADME, tissue-based; conditions: tissue homogenate
[11] = tested on: Lung; assay: Drug metabolism in Sprague-Dawley rat lung homogenate treated with luteolin at 20 uM after 20 to 60 mins; type: ADME, tissue-based; conditions: tissue homogenate
[12] = AUC (0 to t) in Sprague-Dawley rat treated with luteolin at 6.5 mg/kg, iv; type: ADME, organism-based; set-up: dose 6.5 mg/kg, route intravenous; conditions: plasma
[13] = Volume of distribution in Sprague-Dawley rat treated with luteolin at 6.5 mg/kg, iv; type: ADME, organism-based; set-up: dose 6.5 mg/kg, route intravenous; conditions: in vivo
[14] = Drug recovery in Sprague-Dawley rat urine assessed as retention time treated with luteolin at 6.5 mg/kg, iv by reverse-phase HPLC method; type: ADME, organism-based; set-up: dose 6.5 mg/kg, route intravenous; conditions: in vivo
[15] = tested on: Rattus norvegicus; assay: Clearance in Sprague-Dawley rat treated with luteolin at 6.5 mg/kg, iv; type: ADME, organism-based; set-up: dose 6.5 mg/kg, route intravenous; conditions: in vivo
[16] = tested on: Small intestine; assay: Drug metabolism in Sprague-Dawley rat small intestine homogenate treated with luteolin at 20 uM after 20 to 60 mins; type: ADME, tissue-based; conditions: tissue homogenate
[17] = Cmax in Sprague-Dawley rat treated with luteolin at 6.5 mg/kg, iv; type: ADME, organism-based; set-up: dose 6.5 mg/kg, route intravenous; conditions: in vivo
[18] = Mean residence time (0 to t) in Sprague-Dawley rat treated with luteolin at 6.5 mg/kg, iv; type: ADME, organism-based; set-up: dose 6.5 mg/kg, route intravenous; conditions: in vivo
[19] = tested on: Liver; assay: Drug metabolism in Sprague-Dawley rat liver homogenate treated with luteolin at 20 uM after 20 to 60 mins in presence of COMT inhibitor entacapone; type: ADME, tissue-based; conditions: tissue homogenate
[20] = tested on: Kidney; assay: Drug metabolism in Sprague-Dawley rat kidney homogenate treated with luteolin at 20 uM after 20 to 60 mins in presence of COMT inhibitor entacapone; type: ADME, tissue-based; conditions: tissue homogenate
[21] = Drug metabolism in Sprague-Dawley rat erythrocytes homogenate treated with luteolin at 20 uM after 20 to 60 mins; type: ADME, cell-based; conditions: erythrocyte
[22] = Drug metabolism in Sprague-Dawley rat erythrocytes homogenate treated with luteolin at 20 uM after 20 to 60 mins in presence of COMT inhibitor entacapone; type: ADME, cell-based; conditions: erythrocyte

For `COc1ccc(-c2cc(=O)c3c(O)cc(O)cc3o2)cc1O` [DIOSMETIN], the dose excreted at 24 h [1] was 1.22%, the Drug metabolism [2] was “metabolite_detected” and the AUC(0-inf) [3] was 466 ng·h/mL. For the same compound, the dose excreted at 24 h [4] was 0.254%, the Drug metabolism [5] was “metabolite_not_detected” and the Drug metabolism [6] was “metabolite_not_detected”. For the same compound, the Stability [7] was “Unstable”, the half-life [8] was 30.8 min and the MRT inf [9] was 46 min. For the same compound, the Drug metabolism [10] was “metabolite_detected”, the Drug metabolism [11] was “metabolite_detected” and the AUC(0-t) [12] was 427 ng·h/mL. For the same compound, the Vd [13] was 10.3 L/kg, the Retention_time [14] was 30.85 min and the clearance [15] was 238 mL/min/kg. For the same compound, the Drug metabolism [16] was “metabolite_detected”, the Cmax [17] was 560 ng/mL and the MRT last [18] was 35.8 min. The Drug metabolism [19] was “metabolite_not_detected”, the Drug metabolism [20] was “metabolite_not_detected” and the Drug metabolism [21] was “metabolite_detected”. The Drug metabolism [22] was “metabolite_not_detected”.
